Measurements from US6037335A, “Phosphonate-nucleotide ester derivatives” (Mitsubishi Chemical Corporation, priority 1993, dated 2000).
Where two headings read alike, the source gives them in different places.

Legend:
[1] = Concentration required for 50% death of HB611 cells; type: cell-based; conditions: human, read-out: LD50 of HB611 cell
Experimental: (§1) HB611 cells (recombinant human lever cancer cell producing HBV, 2×10^4) was incubated on Dulbecco ME medium containing bovine fetal serum, streptomycin ([…]), penicillin (100 IU/ml) and G-418 (0.2 mg/ml) at 37° C. On the 2nd and 5th days of cultivation, the medium was changed, then the media containing specimens at final concentration of 10 mM were substituted on the 8th, 11th and 14th days. On 17 days of cultivation, DNA of the cell was recovered. The amount of HBV-DNA was measured by southern blotting, and inhibition of HBV-DNA synthesis in the cell was determined. In addition, the concentration of the compound required for 50% death of the HB611 cells was determined.

[2] = system: HBV; assay: Inhibition of HBV growth in rat serum upon oral administration (HB611 cells cultured with 5% serum); type: in vivo; conditions: Hepatitis B virus, read-out: HBV-DNA Synthesis Inhibition; for inhibition at 500 mg/kg: single oral dose 0.5 g/kg
Experimental: (§2) Inhibition of HBV growth in rat or mouse serum upon oral administration
(§3) Groups of rats (3 rats per group) were received single oral dose of specimen (1 g/kg or 0.5 g/kg), bled at 1 hour after administration and serum was prepared. Separately, groups of mice (3 mice per group) were received single oral dose of specimen (0.3 g/kg), bled at 30 minutes after administration and serum was prepared.
(§4) HB611 cells (2×10^4) were incubated on Dulbecco ME medium containing 10% bovine fetal serum, streptomycin ([…]), penicillin (100 IU/ml) and G-418 (0.2 mg/ml) at 37° C. On the 2nd and 5th days of cultivation, the medium was changed, then substituted with a medium containing 5% of the above serum (rat or mouse serum after oral administration of the specimen) on the 8th, 11th and 14th day, and DNA of the cell was recovered on the 17th days of cultivation. The amount of HBV-DNA was measured by southern blotting, and intracellular HBV-DNA synthesis inhibition was determined. For reference, the same experiment was conducted on PMEA.

[3] = system: HBV; assay: Inhibition of HBV growth (HBV-DNA synthesis in HB611 cells, southern blotting); type: cell-based; design: dose or concentration left out as unconfirmed; conditions: Hepatitis B virus, 408 h, DNA recovered day 17
Experimental: as §1

[4] = system: HBV; assay: Inhibition of HBV growth in mouse serum upon oral administration (HB611 cells cultured with 5% serum); type: in vivo; conditions: Hepatitis B virus, HB611, 0.5 h, single oral dose 0.3 g/kg, serum 30 minutes after administration, 5% serum in medium, read-out: HBV-DNA Synthesis Inhibition
Experimental: as §2, §3, §4

[5] = system: hepatitis B virus; conditions: literature; cited from earlier work
[6] = system: human immunodeficiency virus (HIV); conditions: literature; cited from earlier work
[7] = system: herpes simplex viruses type-II (HSV-2); conditions: literature; cited from earlier work
[8] = system: herpes simplex viruses type-I (HSV-1); conditions: literature; cited from earlier work
[9] = HB611, Rat, single oral dose 1 g/kg, serum 1 hour after administration, 5% serum in medium
[10] = HB611, Rat, serum 1 hour after administration, 5% serum in medium

Row | Compound | CC50 [1] | inhibition [3] | further results
1 | Nc1ncnc2c1ncn2CCOCP(=O)(OCC(F)(F)F)OCC(F)(F)F [Example 1, 9-[2-[bis(2,2,2-trifluoroethyl)phosphonylmethoxy]ethyl]adenine] | > 1000 µM | 91.5% | inhibition at 1000 mg/kg [2, 9]: 89.9%
2 | Nc1nc(N)c2ncn(CCOCP(=O)(OCC(F)(F)F)OCC(F)(F)F)c2n1 [Example 2, 9-[2-[bis(2,2,2-trifluoroethyl)phosphonylmethoxy]ethyl]-2,6-diaminopurine] | 840 µM | 99.9% | inhibition at 1000 mg/kg [2, 9]: 71.9%
3 | Nc1nc(Cl)c2ncn(CCOCP(=O)(OCC(F)(F)F)OCC(F)(F)F)c2n1 [Example 3, 9-[2-[bis(2,2,2-trifluoroethyl)phosphonylmethoxy]ethyl]-2-amino-6-chloropurine] | 399 µM | 99.9% | inhibition at 300 mg/kg [4]: 99.9%
4 | Nc1nc(Cl)c2c(ncn2CCOCP(=O)(OCC(F)(F)F)OCC(F)(F)F)n1 [Example 4, 7-[2-[bis(2,2,2-trifluoroethyl)phosphonylmethoxy]ethyl]-2-amino-6-chloropurine] | – | – | inhibition at 300 mg/kg [4]: 36.3%
5 | Nc1nc(N)c2nnn(CCOCP(=O)(OCC(F)(F)F)OCC(F)(F)F)c2n1 [Example 5, 9-[2-[bis(2,2,2-trifluoroethyl)phosphonylmethoxy]ethyl]-8-aza-2,6-diaminopurine] | – | 97.2% | inhibition at 300 mg/kg [4]: 87.2%
6 | COP(=O)(COCCn1cnc2c(N)ncnc21)OCC(F)(F)F (centres unmarked) [Example 12, 9-[2-[methyl(2,2,2-trifluoloethyl)phosphonylmethoxy]ethyl]adenine] | > 1000 µM | – | inhibition at 1000 mg/kg ([2]; HB611, po, 1 h): 92.9%
7 | COP(=O)(COCCn1cnc2c(N)nc(N)nc21)OCC(F)(F)F (centres unmarked) [Example 13, 9-[2-[methyl(2,2,2-trifluoloethyl)phosphonylmethoxy]ethyl]-2,6-diaminopurine] | > 1000 µM | – | inhibition at 1000 mg/kg ([2]; HB611, po, 1 h): 77.7%
8 | COCCOP(=O)(COCCn1cnc2c(N)ncnc21)OCCOC [Example 14] | > 1000 µM | 55% | inhibition at 500 mg/kg [2, 10]: 25.4%
9 | Nc1ncnc2c1ncn2CCOCP(=O)(OCCOc1ccccc1)OCCOc1ccccc1 [Example 15, 9-[[2-bis(2-phenoxyethyl)phosphonylmethoxy]ethyl]adenine] | 174 µM | 59.7% | inhibition at 500 mg/kg [2, 10]: 38.5%
10 | Nc1ncnc2c1ncn2CCOCP(=O)(OCCOCc1ccccc1)OCCOCc1ccccc1 [Example 16, 9-[[2-bis(2-benzyloxyethyl)phosphonylmethoxy]ethyl]adenine] | 178 µM | 57.8% | inhibition at 500 mg/kg [2, 10]: 43.6%
11 | CC(=O)OCCOP(=O)(COCCn1cnc2c(N)ncnc21)OCCOC(C)=O [Example 17, 9-[[2-bis(2-acetoxyethyl)phosphonylmethoxy]ethyl]adenine] | > 1000 µM | 66.2% | –
12 | CCCCC(=O)OCCOP(=O)(COCCn1cnc2c(N)ncnc21)OCCOC(=O)CCCC [Example 18, 9-[[2-bis(2-valeryloxyethyl)phosphonylmethoxy]ethyl]adenine] | 47 µM | 73.4% | inhibition at 500 mg/kg [2, 10]: 61.4%
13 | Nc1nc2c(ncn2CCOCP(=O)(OCC(F)(F)F)OCC(F)(F)F)c(=O)[nH]1 [Example 20] | – | 99.9% | inhibition at 300 mg/kg [4]: 99.9%
14 | Nc1nc2ncn(CCOCP(=O)(OCC(F)(F)F)OCC(F)(F)F)c2c(=O)[nH]1 [Example 21, 7-[2-[bis(2,2,2-trifluoroethyl)phosphonylmethoxy]ethyl]guanine] | – | 71.3% | –
15 | Nc1c2ncn(CCOCP(=O)(OCC(F)(F)F)OCC(F)(F)F)c2nc[n+]1[O-] [Example 22] | – | 76.2% | inhibition at 300 mg/kg [4]: 15.2%
16 | Nc1nc2c(ncn2CCOCP(=O)(OCC(F)(F)F)OCC(F)(F)F)c(=S)[nH]1 [Example 23, 9-[2-[bis(2,2,2-trifluoroethyl)phosphonylmethoxy]ethyl]-6-thioguanine] | – | 86.1% | –
17 | Cc1ccc(Sc2nc(N)nc3c2ncn3CCOCP(=O)(OCC(F)(F)F)OCC(F)(F)F)cc1 [Example 24, 9-[2-[bis(2,2,2-trifluoroethyl)phosphonylmethoxy]ethyl]-2-amino-6-p-toluylthiopurine] | – | 99.9% | –
18 | Cc1ccc(Sc2nc(O)nc3c2ncn3CCOCP(=O)(OCC(F)(F)F)OCC(F)(F)F)cc1 [Example 25, 9-[2-[bis(2,2,2-trifluoroethyl)phosphonylmethoxy]ethyl]-2-hydroxy-6-p-toluylthiopurine] | – | 99.9% | –
19 | Cn1c(N)nc2c(ncn2CCOCP(=O)(OCC(F)(F)F)OCC(F)(F)F)c1=O [Example 26, 9-[2-[bis(2,2,2-trifluoroethyl)phosphonylmethoxy]ethyl]-1-methylguanine] | – | 99.9% | –
20 | Nc1nc(N)c2ncn(CCOCP(=O)(O)O)c2n1 [PMDAP, 9-(2-phosphonylmethoxy)ethyl-2,6-diaminopurine] | – | – | reported to be effective on hepatitis B virus [5]: effective; reported to be effective on human immunodeficiency virus [6]: effective; reported to be effective on herpes simplex virus type-II [7]: effective; reported to be effective on herpes simplex virus type-I [8]: effective
21 | Nc1ncnc2c1ncn2CCOCP(=O)(O)O [PMEA, 9-(2-phosphonylmethoxy)ethyladenine] | – | – | reported to be effective on hepatitis B virus [5]: effective; reported to be effective on human immunodeficiency virus [6]: effective; reported to be effective on herpes simplex virus type-II [7]: effective; inhibition at 1000 mg/kg ([2]; HB611, po, 1 h): 35.5%; reported to be effective on herpes simplex virus type-I [8]: effective
22 | CC(=O)NCCOP(=O)(COCCn1cnc2c(N)ncnc21)OCCNC(C)=O [Reference Example 1, 9-[[2-bis(2-acetamidethyl)phosphonylmethoxy]ethyl]adenine, reference compound] | > 1000 µM | – | inhibition at 500 mg/kg [2, 10]: 0%
23 | Nc1ncnc2c1ncn2CCOCP(=O)(OCCO)OCCO [Reference Example 2, 9-[[2-bis(2-hydroxyethyl)phosphonylmethoxy]ethyl]adenine, reference compound] | > 1000 µM | 31% | inhibition at 500 mg/kg [2, 10]: 0%
